# Data from PubChem BioAssay (NCI).
#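 Cultured in 96-well plates, cells were exposed to test compound for 48 hours across five concentrations. Definition used: TGI = concentration required for complete inhibition of growth.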
# What was measured:
# Test in all cases: NCI anticancer screen, dose series, 48 h
# [1] = system: OVCAR-4 ovarian
# [2] = system: NCI-H522 lung
# [3] = system: K-562 leukemia
# [4] = system: UO-31 renal
# [5] = system: T-47D breast
# [6] = system: ACHN renal
# [7] = system: HCT-15 colon
# [8] = system: U251 CNS
# [9] = system: CCRF-CEM leukemia
# [10] = system: HOP-18 NSCLC
# [11] = system: SN12C renal
# [12] = system: NCI-H23 lung
# [13] = system: OVCAR-3 ovarian
# [14] = system: NCI-H226 lung
# [15] = system: TK-10 renal
# [16] = system: HCT-116 colon
# [17] = system: OVCAR-8 ovarian
# [18] = system: MDA-MB-435
# [19] = system: SK-MEL-5 melanoma
# [20] = system: LXFL 529 NSCLC
# [21] = system: DU-145 prostate
# [22] = system: SF-295 CNS
# [23] = system: MDA-MB-231 breast
# [24] = system: DMS 273 small cell lung
# [25] = system: HOP-62 NSCLC
# [26] = system: SK-MEL-2 melanoma
# [27] = system: A549 NSCLC
# [28] = system: MDA-N
# [29] = system: HCC-2998 colon
# [30] = system: RPMI-8226 leukemia
# [31] = system: M14 melanoma
# [32] = system: LOX IMVI melanoma
# [33] = system: OVCAR-5 ovarian
# [34] = system: HT29 colon
# [35] = system: DLD-1 colon
# [36] = system: MALME-3M melanoma
# [37] = system: SF-539 CNS
# [38] = system: HS 578T breast
# [39] = system: SNB-78 CNS
# [40] = system: SK-OV-3 ovarian
# [41] = system: UACC-62 melanoma
# [42] = system: SNB-75 CNS
# [43] = system: CAKI-1 renal
# [44] = system: NCI/ADR-RES ovarian
# [45] = system: SW-620 colon
# [46] = system: BT-549 breast
# [47] = system: SF-268 CNS
# [48] = system: NCI-H460 lung
# [49] = system: MOLT-4 leukemia
# [50] = system: SK-MEL-28 melanoma
# [51] = system: M19-MEL melanoma
# [52] = system: PC-3 prostate
# [53] = system: IGROV1 ovarian
# [54] = system: 786-0 renal
# [55] = system: XF 498 CNS
# [56] = system: RXF 393 renal
# [57] = system: EKVX NSCLC
# [58] = system: UACC-257 melanoma
# [59] = system: COLO 205 colon
# [60] = system: MCF7 breast
# [61] = system: HL-60(TB) leukemia
# [62] = system: KM20L2 colon
# [63] = system: HOP-92 NSCLC
# [64] = system: A498 renal
# [65] = system: KM12 colon
# [66] = system: SNB-19 CNS
# [67] = system: DMS 114 small cell lung
# [68] = system: RXF-631 renal
structure (smiles),measurement,setting,value
C[N+](C)(C)CCC(=O)N1C/C(=C\c2ccccc2)C(=O)/C(=C/c2ccccc2)C1,TGI,[1],9.79 µM
same,TGI,[2],5.42 µM
same,TGI,[3],6.3 µM
same,TGI,[4],33 µM
same,TGI,[5],4.41 µM
same,TGI,[6],15.3 µM
same,TGI,[7],6.49 µM
same,TGI,[8],6 µM
same,TGI,[9],7.05 µM
same,TGI,[10],26.7 µM
same,TGI,[11],4.59 µM
same,TGI,[12],23.3 µM
same,TGI,[13],9.31 µM
same,TGI,[14],20 µM
same,TGI,[15],23.6 µM
same,TGI,[16],2.98 µM
same,TGI,[17],8.44 µM
same,TGI,[18],5.49 µM
same,TGI,[19],22.6 µM
same,TGI,[20],13.5 µM
same,TGI,[21],30.6 µM
same,TGI,[22],11.9 µM
same,TGI,[23],9.82 µM
same,TGI,[24],5.33 µM
same,TGI,[25],33.6 µM
same,TGI,[26],30.1 µM
same,TGI,[27],32.1 µM
same,TGI,[28],3.36 µM
same,TGI,[29],13.2 µM
same,TGI,[30],2.3 µM
same,TGI,[31],7.54 µM
same,TGI,[32],3.46 µM
same,TGI,[33],30.6 µM
same,TGI,[34],7.93 µM
same,TGI,[35],5.78 µM
same,TGI,[36],30.4 µM
same,TGI,[37],11.8 µM
same,TGI,[38],21.2 µM
same,TGI,[39],22.9 µM
same,TGI,[40],46.8 µM
same,TGI,[41],10.3 µM
same,TGI,[42],24.3 µM
same,TGI,[43],18.2 µM
same,TGI,[44],3.3 µM
same,TGI,[45],2.68 µM
same,TGI,[46],4.95 µM
same,TGI,[47],13 µM
same,TGI,[48],22.4 µM
same,TGI,[49],7.31 µM
same,TGI,[50],15.4 µM
same,TGI,[51],15.5 µM
same,TGI,[52],6.97 µM
same,TGI,[53],13.4 µM
same,TGI,[54],5.46 µM
same,TGI,[55],27.6 µM
same,TGI,[56],28.3 µM
same,TGI,[57],35.9 µM
same,TGI,[58],28.2 µM
same,TGI,[59],13.4 µM
same,TGI,[60],3.31 µM
same,TGI,[61],9.44 µM
same,TGI,[62],22 µM
same,TGI,[63],38.7 µM
same,TGI,[64],35.3 µM
same,TGI,[65],3.11 µM
same,TGI,[66],12.2 µM
same,TGI,[67],> 22.3 µM
CC(N)C(=O)c1ccc(O)cc1 (stereo not drawn),TGI,[1],> 100 µM
same,TGI,[2],> 100 µM
same,TGI,[3],> 100 µM
same,TGI,[68],> 100 µM
same,TGI,[4],> 100 µM
same,TGI,[6],> 100 µM
same,TGI,[7],> 100 µM
same,TGI,[8],> 100 µM
same,TGI,[9],> 100 µM
same,TGI,[10],> 100 µM
same,TGI,[11],> 100 µM
same,TGI,[12],> 100 µM
same,TGI,[13],> 100 µM
same,TGI,[14],> 100 µM
same,TGI,[15],> 100 µM
same,TGI,[16],> 100 µM
same,TGI,[17],> 100 µM
same,TGI,[19],> 100 µM
same,TGI,[20],> 100 µM
same,TGI,[22],> 100 µM
same,TGI,[24],> 100 µM
same,TGI,[25],> 100 µM
same,TGI,[26],> 100 µM
same,TGI,[27],> 100 µM
same,TGI,[29],> 100 µM
same,TGI,[30],> 100 µM
same,TGI,[31],> 100 µM
same,TGI,[32],> 100 µM
same,TGI,[33],> 100 µM
same,TGI,[34],> 100 µM
same,TGI,[35],> 100 µM
same,TGI,[36],> 100 µM
same,TGI,[37],> 100 µM
same,TGI,[39],> 100 µM
same,TGI,[40],> 100 µM
same,TGI,[41],> 100 µM
same,TGI,[42],> 100 µM
same,TGI,[43],> 100 µM
same,TGI,[45],> 100 µM
same,TGI,[47],> 100 µM
same,TGI,[48],> 100 µM
same,TGI,[49],> 100 µM
same,TGI,[50],> 100 µM
same,TGI,[53],> 100 µM
same,TGI,[54],> 100 µM
same,TGI,[56],> 100 µM
same,TGI,[57],> 100 µM
same,TGI,[58],> 100 µM
same,TGI,[59],> 100 µM
same,TGI,[61],> 100 µM
same,TGI,[62],> 100 µM
same,TGI,[63],> 100 µM
same,TGI,[64],> 100 µM
same,TGI,[65],> 100 µM
same,TGI,[66],> 100 µM
same,TGI,[67],> 100 µM
